Values of other authors, collected in patent publication US9303023B2, “Pyrazole and imidazole derivatives useful as orexin antagonists” (ACTELION PHARMACEUTICALS LTD., priority 2011, dated 2016).

How the values were obtained:
amyloid-beta (Aβ) = settings: after acute sleep restriction, amyloid precursor protein transgenic mice
[1] = rat
[2] = mouse model of depression, administered chronically
[3] = fasted hungry rats exposed to food odors
[4] = rat fear-potentiated startle paradigm
[5] = rat model
[6] = in vivo

SMILES | brain levels of amyloid-beta (Aβ) and Aβ plaque deposition (amyloid-beta (Aβ)) | alertness (active wake and locomotion) [1] | time spent in both REM and NREM sleep [1] | antidepressant-like activity [2] | natural activation induced by orexin A [3] | activity in conditioned fear model [4] | memory function [5] | activity in animal model related to addictions [6]
CNC(=O)[C@@H](c1ccccc1)N1CCc2cc(OC)c(OC)cc2[C@@H]1CCc1ccc(C(F)(F)F)cc1 [(2R)-2-{(1S)-6,7-dimethoxy-1-[2-(4-trifluoromethyl-phenyl)-ethyl]-3,4-dihydro-1H-isoquinolin-2-yl}-N-methyl-2-phenyl-acetamide] | decreased | decrease alertness | dose-dependently increase | induce antidepressant-like activity | attenuate the natural activation induced by orexin A | active | enhance memory function | 
COc1ccc(C[C@H]2c3cc(OC)c(OC)cc3CCN2[C@@H](C(=O)NC(C)C)c2ccccc2)cc1OC [(R)-2-[(S)-1-(3,4-Dimethoxy-benzyl)-6,7-dimethoxy-3,4-dihydro-1H-isoquinolin-2-yl]-N-isopropyl-2-phenyl-acetamide] |  |  |  |  |  | active |  | active
